Data published in PubChem BioAssay AID1963848 (Molecular Pharmacology Branch, DTP, NCI, 2024).

Tested on: 379773-124-R-J2-PDC spheroid viability
Assay: Anticancer human tumor 379773-124-R-J2-PDC patient-derived endometrial carcinoma cell line growth inhibition [POLQ]
Settings: spheroids with HUVEC and MSC; for IC50: curve of first compound; for viability, T/C: stronger effect = lower value; active = viability on the fitted dose curve at most 10% of control; inactive = the rest
Procedure: Multicellular complex tumor spheroid response to Polymerase (POL) inhibitors (novobiocin, ART-558, RP6685) in combination with a variety of drugs and investigational agents in selected tumor cell lines
The POL inhibitors (novobiocin, ART-558, and RP6685) were evaluated both individually and in combination with standard of care and investigational anticancer small molecules within a complex spheroid model of solid tumors. . Complex spheroids include a stromal component modeled by human endothelial cells (HUVEC) and fibroblasts modeled by human mesenchymal stem cells (MSCs). The concentration ranges selected for each drug and investigational agent were based upon clinically achievable concentrations if the clinical Cmax of the agent was known.
Compounds. The drugs and investigational agents: novobiocin (NSC847541), ART-558 (NSC835418), RP-6685 (NSC848927), peposertib (NSC802822), ceralasertib (NSC780249), elimusertib (NSC800525), camonsertib (NSC841442), AZD-1390 (NSC803789), olaparib (NSC753686), talazoparib (NSC767125), rucaparib (NSC756644), sotorasib (NSC818433), MRTX-1133 (NSC836407), SN-38 (NSC673596), topotecan (NSC609699), epotoside (NSC141540), doxorubicin (NSC123127), gemcitabine (NSC613327), 5-fluorouracil (NSC19893), paclitaxel (NSC125973), vemurafenib (NSC761431), MSA-2 (NSC828583), SN-011 (NSC837082), adavosertib (NSC754352), prexasertib (NSC758257), carboplatin (NSC241240) and oxaliplatin (NSC266046), were obtained from the National Cancer Institute (NCI) Developmental Therapeutics Program Chemical Repository (21). The FDA-approved anticancer drug set is available from the Developmental Therapeutics Program at https://dtp.cancer.gov/organization/dscb/obtaining/. […] The stock solutions were prepared in dimethyl sulfoxide (DMSO, Sigma-Aldrich, St. Louis, MO, cat. D2650), except for the platinum compounds which were prepared in saline (Quality Biological, Gaithersburg, MD, cat. 114-055-101), at 800-fold the tested concentration and stored at -70 degrees C prior to their use. All drugs and investigational agents were tested over a range starting from a high concentration at or near the clinical Cmax and decreasing in half-log increments. If the clinical Cmax for an agent had not been determined, the highest concentration tested was 10 microM, except for SN-38, which was tested at a high concentration of 1 microM.
Cell Culture. All cells were maintained in an incubator at 37 degrees C and 5% CO2 with 95% humidity. The PDC lines were cultured according to standard operating procedures established by the NCI PDMR (https://pdmr.cancer.gov). Table 3 of the manuscript, lists the cell lines along with the number of the three cell types plated to form the mct-spheroids and media for tumor cell growth. After thawing, all PDC lines, except 997537-175-T-J1-PDC and 415267-285-R-J2-PDC, were cultured in Matrigel-coated flasks prepared with a working solution of 1X Ham's F-12 nutrient mix, without supplementation (Thermo Fisher Scientific, cat. 11765054), 100 U/mL penicillin-streptomycin (Thermo Fisher Scientific, cat. 15140122), and 2.5% Matrigel (Corning Inc., Corning, NY, cat. 354248) for the first three passages. The two PDC lines 997537-175-T-J1-PDC and 415267-285-R-J2-PDC were cultured on uncoated flasks. The 857933-349-R-J2-PDC line was cultured in 6C/Colon 1B media containing advanced DMEM/F-12 (Thermo Fisher Scientific, cat. 12634028), 10 mM HEPES (Thermo Fisher Scientific, cat. 15630080), 1X GlutaMAX supplement (Thermo Fisher Scientific, cat. 35050061), 0.1 mg/mL primocin (InvivoGen, San Diego, CA, cat. ant-pm-2), 10% defined fetal bovine serum, heat inactivated (HyClone Laboratories Inc., Logan, UT, cat. SH30070.03HI), 50% L-WRN conditioned media (ATCC, cat. CRL-3276), 1.25 mM N-Acetyl-L-cysteine (Sigma-Aldrich, cat. A9165), 10 mM nicotinamide (Sigma-Aldrich, cat. N0636), 1X B-27 supplement (Thermo Fisher Scientific, cat. 17504044), 1X N-2 supplement (Thermo Fisher Scientific, cat. […]

[1] = second compound 0.0316 µM, first compound 0.0316 µM
[2] = second compound 0.0316 µM, first compound 0.1 µM
[3] = second compound 0.0316 µM, first compound 0.316 µM
[4] = second compound 0.0316 µM, first compound 1 µM
[5] = second compound 0.0316 µM, first compound 3.16 µM
[6] = second compound 0.0316 µM, first compound 10 µM
[7] = second compound 0.1 µM, first compound 0.0316 µM
[8] = second compound 0.1 µM, first compound 0.1 µM
[9] = second compound 0.1 µM, first compound 0.316 µM
[10] = second compound 0.1 µM, first compound 1 µM
[11] = second compound 0.1 µM, first compound 3.16 µM
[12] = second compound 0.1 µM, first compound 10 µM
[13] = second compound 0.316 µM, first compound 0.0316 µM
[14] = second compound 0.316 µM, first compound 0.1 µM
[15] = second compound 0.316 µM, first compound 0.316 µM
[16] = second compound 0.316 µM, first compound 1 µM
[17] = second compound 0.316 µM, first compound 3.16 µM
[18] = second compound 0.316 µM, first compound 10 µM
[19] = second compound 1 µM, first compound 0.0316 µM
[20] = second compound 1 µM, first compound 0.1 µM
[21] = second compound 1 µM, first compound 0.316 µM
[22] = second compound 1 µM, first compound 1 µM
[23] = second compound 1 µM, first compound 3.16 µM
[24] = second compound 1 µM, first compound 10 µM
[25] = second compound 3.16 µM, first compound 0.0316 µM
[26] = second compound 3.16 µM, first compound 0.1 µM
[27] = second compound 3.16 µM, first compound 0.316 µM
[28] = second compound 3.16 µM, first compound 1 µM
[29] = second compound 3.16 µM, first compound 3.16 µM
[30] = second compound 3.16 µM, first compound 10 µM
[31] = second compound 10 µM, first compound 0.0316 µM
[32] = second compound 10 µM, first compound 0.1 µM
[33] = second compound 10 µM, first compound 0.316 µM
[34] = second compound 10 µM, first compound 1 µM
[35] = second compound 10 µM, first compound 3.16 µM
[36] = second compound 10 µM, first compound 10 µM
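Also: spheroids exposed to drugs for seven days before readout.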
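For viability, T/C in this document: percent viability relative to DMSO vehicle control taken as 100%.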

CC(C)n1c(=O)n(C)c2cnc3cc(F)c(-c4ccc(OCCCN5CCCCC5)nc4)cc3c21 + Cc1cccc(N(C)C(=O)C2C(O)CCN2c2nc(C)cc(C(F)(F)F)c2C#N)c1
> 10 µM: IC50 (second compound 0.0316 µM) | IC50 (second compound 0.1 µM) | IC50 (second compound 0.316 µM) | IC50 (second compound 1 µM) | IC50 (second compound 3.16 µM) | IC50 (second compound 10 µM)
inactive: viability, T/C [1] 89.1% | viability, T/C [2] 76.9% | viability, T/C [3] 83.4% | viability, T/C [4] 77.9% | viability, T/C [5] 83% | viability, T/C [6] 59.9% | viability, T/C [7] 88.8% | viability, T/C [8] 77.1% | viability, T/C [9] 77.2% | viability, T/C [10] 79.9% | viability, T/C [11] 98.7% | viability, T/C [12] 65.8% | viability, T/C [13] 80.3% | viability, T/C [14] 89.8% | viability, T/C [15] 75.9% | viability, T/C [16] 73.6% | viability, T/C [17] 79.7% | viability, T/C [18] 65.1% | viability, T/C [19] 84% | viability, T/C [20] 75.1% | viability, T/C [21] 80.1% | viability, T/C [22] 73.1% | viability, T/C [23] 79.1% | viability, T/C [24] 69.8% | viability, T/C [25] 73.7% | viability, T/C [26] 75.3% | viability, T/C [27] 75.3% | viability, T/C [28] 64.4% | viability, T/C [29] 72% | viability, T/C [30] 72.1% | viability, T/C [31] 78.7% | viability, T/C [32] 79.5% | viability, T/C [33] 89.2% | viability, T/C [34] 73.9% | viability, T/C [35] 70.3% | viability, T/C [36] 56.1%

CCc1c2c(nc3ccc(O)cc13)-c1cc3c(c(=O)n1C2)COC(=O)[C@]3(O)CC + Nc1ccc(C#CCN(C(=O)Cc2ncc(C(F)(F)F)cc2C(F)(F)F)c2ccc(F)cc2)nn1
0.00352 µM: IC50 (second compound 0.1 µM)
active: viability, T/C [1] 12.6% | viability, T/C [2] 4.69% | viability, T/C [3] 3.2% | viability, T/C [4] 1.03% | viability, T/C [7] 13.1% | viability, T/C [8] 4.92% | viability, T/C [9] 1.48% | viability, T/C [10] 0.65% | viability, T/C [13] 11.1% | viability, T/C [14] 4.23% | viability, T/C [15] 1.5% | viability, T/C [16] 0.7% | viability, T/C [19] 10.4% | viability, T/C [20] 5.54% | viability, T/C [21] 1.41% | viability, T/C [22] 3.04% | viability, T/C [25] 9.79% | viability, T/C [26] 3.28% | viability, T/C [27] 1.52% | viability, T/C [28] 0.83% | viability, T/C [31] 11.6% | viability, T/C [32] 4.49% | viability, T/C [33] 1.89% | viability, T/C [34] 0.9%
< 0.00316 µM: IC50 (second compound 0.0316 µM) | IC50 (second compound 0.316 µM) | IC50 (second compound 1 µM) | IC50 (second compound 3.16 µM) | IC50 (second compound 10 µM)
inactive: viability, T/C (second compound 0.0316 µM, first compound 0.00316 µM) 45.5% | viability, T/C (second compound 0.0316 µM, first compound 0.01 µM) 17.6% | viability, T/C (second compound 0.1 µM, first compound 0.00316 µM) 53.6% | viability, T/C (second compound 0.1 µM, first compound 0.01 µM) 16.7% | viability, T/C (second compound 0.316 µM, first compound 0.00316 µM) 48.6% | viability, T/C (second compound 0.316 µM, first compound 0.01 µM) 12.6% | viability, T/C (second compound 1 µM, first compound 0.00316 µM) 47.8% | viability, T/C (second compound 1 µM, first compound 0.01 µM) 13.7% | viability, T/C (second compound 3.16 µM, first compound 0.00316 µM) 47.9% | viability, T/C (second compound 3.16 µM, first compound 0.01 µM) 15.1% | viability, T/C (second compound 10 µM, first compound 0.00316 µM) 41.9% | viability, T/C (second compound 10 µM, first compound 0.01 µM) 14.7%

O=C(c1cc(Cc2n[nH]c(=O)c3ccccc23)ccc1F)N1CCN(C(=O)C2CC2)CC1 + Nc1ccc(C#CCN(C(=O)Cc2ncc(C(F)(F)F)cc2C(F)(F)F)c2ccc(F)cc2)nn1
9.3 µM: IC50 (second compound 0.0316 µM)
inactive: viability, T/C [1] 87.2% | viability, T/C [2] 93.1% | viability, T/C [3] 82.5% | viability, T/C [4] 89.9% | viability, T/C [5] 87.8% | viability, T/C [6] 47.5% | viability, T/C [7] 85.1% | viability, T/C [8] 94.2% | viability, T/C [9] 94% | viability, T/C [10] 83% | viability, T/C [11] 91.1% | viability, T/C [12] 45.5% | viability, T/C [13] 89.8% | viability, T/C [14] 90% | viability, T/C [15] 92.7% | viability, T/C [16] 91.3% | viability, T/C [17] 82% | viability, T/C [18] 50.6% | viability, T/C [19] 95.1% | viability, T/C [20] 100% | viability, T/C [21] 94% | viability, T/C [22] 85.2% | viability, T/C [23] 83.1% | viability, T/C [24] 48.4% | viability, T/C [25] 88.1% | viability, T/C [26] 88.7% | viability, T/C [27] 84.7% | viability, T/C [28] 93.2% | viability, T/C [29] 89.8% | viability, T/C [30] 52.2% | viability, T/C [31] 87.8% | viability, T/C [32] 89.2% | viability, T/C [33] 89.3% | viability, T/C [34] 96.5% | viability, T/C [35] 84.5% | viability, T/C [36] 49.5%
> 10 µM: IC50 (second compound 0.316 µM) | IC50 (second compound 3.16 µM)
9.76 µM: IC50 (second compound 1 µM)
8.88 µM: IC50 (second compound 0.1 µM)
9.98 µM: IC50 (second compound 10 µM)
